In patent US20250186541A1, “DLL3 TARGETING PEPTIDES AND CONSTRUCTS THEREOF” (MARIANA ONCOLOGY INC., priority 2023, published 2025):
Bridge positions count the residues as written; N and C are the ends. Square brackets hold non-standard residues; d marks the D form. Peptide text beside a SMILES is read from it. * marks the point of attachment. DOTA = O=C(O)CN1CCN(CC(=O)O)CCN(CC(=O)*)CCN(CC(=O)O)CC1; Phe(4-CF3) = N[C@@H](Cc1ccc(C(F)(F)F)cc1)C(=O)O; Phe(4-COOH) = N[C@@H](Cc1ccc(C(=O)O)cc1)C(=O)O; Bip = N[C@@H](Cc1ccc(-c2ccccc2)cc1)C(=O)O; Phe(3-F) = N[C@@H](Cc1cccc(F)c1)C(=O)O; Phe(4-F) = N[C@@H](Cc1ccc(F)cc1)C(=O)O; Carboxymethyl = O=C(O)C*; Nva = CCC[C@H](N)C(=O)O; Ahx = NCCCCCC(=O)O

biological target: T1, human DLL3 (Homo sapiens, UniProt Q9NYJ7); assay: Affinity determination by Surface Plasmon Resonance (SPR), Biacore, 1:1 binding model; settings: biotinylated human DLL3 on streptavidin chip, 25° C.; NB = nonbinding
T1 construct: biotin (biotinylated)
T1 sequence (Q9NYJ7 27-618): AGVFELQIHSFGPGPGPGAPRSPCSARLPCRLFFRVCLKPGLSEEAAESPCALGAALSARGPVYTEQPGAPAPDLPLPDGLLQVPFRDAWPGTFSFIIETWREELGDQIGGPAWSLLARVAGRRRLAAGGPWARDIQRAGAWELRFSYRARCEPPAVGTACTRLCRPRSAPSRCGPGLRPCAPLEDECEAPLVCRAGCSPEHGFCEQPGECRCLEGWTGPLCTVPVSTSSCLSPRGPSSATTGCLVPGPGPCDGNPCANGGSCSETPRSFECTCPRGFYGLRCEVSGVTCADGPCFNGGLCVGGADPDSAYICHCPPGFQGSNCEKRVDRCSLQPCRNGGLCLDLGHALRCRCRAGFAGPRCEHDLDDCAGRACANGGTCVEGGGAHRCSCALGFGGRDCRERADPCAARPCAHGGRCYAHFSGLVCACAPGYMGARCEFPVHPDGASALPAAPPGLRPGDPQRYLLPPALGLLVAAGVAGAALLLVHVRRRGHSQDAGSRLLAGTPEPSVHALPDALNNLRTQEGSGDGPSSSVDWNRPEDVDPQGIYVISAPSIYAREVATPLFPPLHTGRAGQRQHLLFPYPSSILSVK
Procedure: Example 3. Binding Affinity of Targeting Moieties Polypeptides to DLL3 Affinity Determination by Surface Plasmon Resonance (SPR)
SPR studies were performed on the compounds disclosed herein using the following protocol. […] Biotinylated target ligand human DLL3 was immobilized on a streptavidin sensor chip. A reference surface was set up for nonspecific binding and refractive index changes. For analysis of the kinetics of interactions, varying concentrations of samples were injected at a flow rate of 100 μL/min using running buffer containing 20 mM phosphate buffer with 2.7 mM KCl, 137 mM NaCl, 0.05% Surfactant P20 and 2% DMSO. Sensorgram curves were fitted with 1:1 binding model, and affinity and kinetic parameters were obtained using Biacore Insight evaluation 4.0. software.

SMILES | Kd
CCC[C@H](NC(C)=O)C(=O)N[C@@H](CO)C(=O)N[C@@H](CC(=O)O)C(=O)N[C@H]1CSSC[C@@H](C(=O)N2CCC[C@H]2C(=O)N[C@@H](Cc2ccccc2)C(=O)N[C@@H](CC(=O)O)C(=O)N[C@H](CCCCNC(=O)CN2CCN(CC(=O)O)CCN(CC(=O)O)CCN(CC(=O)O)CC2)C(N)=O)NC(=O)[C@H](CC(N)=O)NC(=O)[C@H](Cc2c[nH]c3ccccc23)NC(=O)[C@H](CCC(N)=O)NC(=O)[C@H](CC(C)C)NC(=O)[C@H](Cc2c[nH]c3ccccc23)NC1=O [compound 32, Ac-Nva-S-D-C(3)-W-L-Q-W-N-C(3)-P-F-D-D-Lys(DOTA)-CONH2] (Ac-[Nva]SDCWLQWNCPFD[dK](DOTA)-NH2; disulfide 4-10) | 28 nM
CC(C)C[C@@H]1NC(=O)[C@H](Cc2c[nH]c3ccccc23)NC(=O)[C@@H](NC(=O)[C@H](CC(=O)O)NC(=O)[C@H](CO)NC(=O)CCCCCNC(=O)CN2CCN(CC(=O)O)CCN(CC(=O)O)CCN(CC(=O)O)CC2)CSSC[C@@H](C(=O)N2CCC[C@H]2C(=O)N[C@@H](Cc2ccc(F)cc2)C(=O)N[C@@H](CC(=O)O)C(N)=O)NC(=O)[C@H](CC(N)=O)NC(=O)[C@H](Cc2c[nH]c3ccccc23)NC(=O)[C@H](CCC(N)=O)NC1=O [compound 33, DOTA-Ahx-S-D-C(3)-W-L-Q-W-N-C(3)-P-(4Fluoro-F)-D-CONH2] ({DOTA-Ahx}-SDCWLQWNCP[Phe(4-F)]D-NH2; disulfide 3-9) | > 300 nM
CC(C)C[C@@H]1NC(=O)[C@H](Cc2c[nH]c3ccccc23)NC(=O)[C@@H](NC(=O)[C@H](CC(=O)O)NC(=O)[C@H](CO)NC(=O)CCCCCNC(=O)CN2CCN(CC(=O)O)CCN(CC(=O)O)CCN(CC(=O)O)CC2)CSSC[C@@H](C(=O)N2CCC[C@H]2C(=O)N[C@@H](Cc2ccc(C(F)(F)F)cc2)C(=O)N[C@@H](CC(=O)O)C(N)=O)NC(=O)[C@H](CC(N)=O)NC(=O)[C@H](Cc2c[nH]c3ccccc23)NC(=O)[C@H](CCC(N)=O)NC1=O [compound 34, DOTA-Ahx-S-D-C(3)-W-L-Q-W-N-C(3)-P-(4CF3-F)-D-CONH2] ({DOTA-Ahx}-SDCWLQWNCP[Phe(4-CF3)]D-NH2; disulfide 3-9) | > 300 nM
CC(C)C[C@@H]1NC(=O)[C@H](Cc2c[nH]c3ccccc23)NC(=O)[C@@H](NC(=O)[C@H](CC(=O)O)NC(=O)[C@H](CO)NC(=O)CCCCCNC(=O)CN2CCN(CC(=O)O)CCN(CC(=O)O)CCN(CC(=O)O)CC2)CSSC[C@@H](C(=O)N2CCC[C@H]2C(=O)N[C@@H](Cc2ccc(C(=O)O)cc2)C(=O)N[C@@H](CC(=O)O)C(N)=O)NC(=O)[C@H](CC(N)=O)NC(=O)[C@H](Cc2c[nH]c3ccccc23)NC(=O)[C@H](CCC(N)=O)NC1=O [compound 35, DOTA-Ahx-S-D-C(3)-W-L-Q-W-N-C(3)-P-(4COOH-F)-D-CONH2] ({DOTA-Ahx}-SDCWLQWNCP[Phe(4-COOH)]D-NH2; disulfide 3-9) | > 100 nM
CC(C)C[C@@H]1NC(=O)[C@H](Cc2c[nH]c3ccccc23)NC(=O)[C@@H](NC(=O)[C@H](CC(=O)O)NC(=O)[C@H](CO)NC(=O)CCCCCNC(=O)CN2CCN(CC(=O)O)CCN(CC(=O)O)CCN(CC(=O)O)CC2)CSSC[C@@H](C(=O)N2CCC[C@H]2C(=O)N[C@@H](Cc2cccc(F)c2)C(=O)N[C@@H](CC(=O)O)C(N)=O)NC(=O)[C@H](CC(N)=O)NC(=O)[C@H](Cc2c[nH]c3ccccc23)NC(=O)[C@H](CCC(N)=O)NC1=O [compound 36, DOTA-Ahx-S-D-C(3)-W-L-Q-W-N-C(3)-P-(3Fluoro-F)-D-CONH2] ({DOTA-Ahx}-SDCWLQWNCP[Phe(3-F)]D-NH2; disulfide 3-9) | 16 nM
CC(C)C[C@@H]1NC(=O)[C@H](Cc2c[nH]c3ccccc23)NC(=O)[C@@H](NC(=O)[C@H](CC(=O)O)NC(=O)[C@H](CO)NC(=O)CCCCCNC(=O)CN2CCN(CC(=O)O)CCN(CC(=O)O)CCN(CC(=O)O)CC2)CSSC[C@@H](C(=O)N2CCC[C@H]2C(=O)N[C@@H](Cc2ccc(OCC(=O)O)cc2)C(=O)N[C@@H](CC(=O)O)C(N)=O)NC(=O)[C@H](CC(N)=O)NC(=O)[C@H](Cc2c[nH]c3ccccc23)NC(=O)[C@H](CCC(N)=O)NC1=O [compound 37, DOTA-Ahx-S-D-C(3)-W-L-Q-W-N-C(3)-P-(4-CMF)-D-CONH2] ({DOTA-Ahx}-SDCWLQWNCPY(Carboxymethyl)D-NH2; disulfide 3-9) | > 100 nM
CC(C)C[C@@H]1NC(=O)[C@H](Cc2c[nH]c3ccccc23)NC(=O)[C@@H](NC(=O)[C@H](CC(=O)O)NC(=O)[C@H](CO)NC(=O)CCCCCNC(=O)CN2CCN(CC(=O)O)CCN(CC(=O)O)CCN(CC(=O)O)CC2)CSSC[C@@H](C(=O)N2CCC[C@H]2C(=O)N[C@@H](Cc2ccc(-c3ccccc3)cc2)C(=O)N[C@@H](CC(=O)O)C(N)=O)NC(=O)[C@H](CC(N)=O)NC(=O)[C@H](Cc2c[nH]c3ccccc23)NC(=O)[C@H](CCC(N)=O)NC1=O [compound 38, DOTA-Ahx-S-D-C(3)-W-L-Q-W-N-C(3)-P-(BIP)-D-CONH2] ({DOTA-Ahx}-SDCWLQWNCP[Bip]D-NH2; disulfide 3-9) | > 300 nM

Next, values leading:

Kd | SMILES
> 100 nM | CSCC[C@H](NC(C)=O)C(=O)N[C@@H](C)C(=O)N[C@@H](CC(=O)O)C(=O)N[C@H]1CSSC[C@@H](C(=O)N2CCC[C@H]2C(=O)N[C@@H](Cc2ccccc2)C(=O)N[C@@H](CC(=O)O)C(N)=O)NC(=O)[C@H](CC(N)=O)NC(=O)[C@H](Cc2c[nH]c3ccccc23)NC(=O)[C@H](CCC(N)=O)NC(=O)[C@H](CC(C)C)NC(=O)[C@H](Cc2c[nH]c3ccccc23)NC1=O [compound 20, Ac-M-(L-Ala)-D-C(3)-W-L-Q-W-N-C(3)-P-F-D-CONH2] (Ac-MADCWLQWNCPFD-NH2; disulfide 4-10)
> 100 nM | CSCC[C@H](NC(C)=O)C(=O)N[C@@H](CO)C(=O)N[C@@H](CC(=O)O)C(=O)N[C@H]1CSSC[C@@H](C(=O)N2CCC[C@H]2C(=O)N[C@@H](Cc2ccccc2)C(=O)N[C@@H](CC(=O)O)C(N)=O)NC(=O)[C@H](CC(N)=O)NC(=O)[C@H](Cc2c[nH]c3ccccc23)NC(=O)[C@H](CCC(N)=O)NC(=O)[C@H](CC(C)C)NC(=O)[C@H](C)NC1=O [compound 22, Ac-M-S-D-C(3)-(L-Ala)-L-Q-W-N-C(3)-P-F-D-CONH2] (Ac-MSDCALQWNCPFD-NH2; disulfide 4-10)
> 100 nM | CSCC[C@H](NC(C)=O)C(=O)N[C@@H](CO)C(=O)N[C@@H](CC(=O)O)C(=O)N[C@H]1CSSC[C@@H](C(=O)N2CCC[C@H]2C(=O)N[C@@H](Cc2ccccc2)C(=O)N[C@@H](CC(=O)O)C(N)=O)NC(=O)[C@H](CC(N)=O)NC(=O)[C@H](Cc2c[nH]c3ccccc23)NC(=O)[C@H](CCC(N)=O)NC(=O)[C@H](C)NC(=O)[C@H](Cc2c[nH]c3ccccc23)NC1=O [compound 23, Ac-M-S-D-C(3)-W-(L-Ala)-Q-W-N-C(3)-P-F-D-CONH2] (Ac-MSDCWAQWNCPFD-NH2; disulfide 4-10)
> 100 nM | CSCC[C@H](NC(C)=O)C(=O)N[C@@H](CO)C(=O)N[C@@H](CC(=O)O)C(=O)N[C@H]1CSSC[C@@H](C(=O)N2CCC[C@H]2C(=O)N[C@@H](Cc2ccccc2)C(=O)N[C@@H](CC(=O)O)C(N)=O)NC(=O)[C@H](C)NC(=O)[C@H](Cc2c[nH]c3ccccc23)NC(=O)[C@H](CCC(N)=O)NC(=O)[C@H](CC(C)C)NC(=O)[C@H](Cc2c[nH]c3ccccc23)NC1=O [compound 26, Ac-M-S-D-C(3)-W-L-Q-W-(L-Ala)-C(3)-P-F-D-CONH2] (Ac-MSDCWLQWACPFD-NH2; disulfide 4-10)
> 100 nM | CSCC[C@H](NC(C)=O)C(=O)N[C@@H](CO)C(=O)N[C@@H](CC(=O)O)C(=O)N[C@H]1CSSC[C@@H](C(=O)N[C@@H](C)C(=O)N[C@@H](Cc2ccccc2)C(=O)N[C@@H](CC(=O)O)C(N)=O)NC(=O)[C@H](CC(N)=O)NC(=O)[C@H](Cc2c[nH]c3ccccc23)NC(=O)[C@H](CCC(N)=O)NC(=O)[C@H](CC(C)C)NC(=O)[C@H](Cc2c[nH]c3ccccc23)NC1=O [compound 27, Ac-M-S-D-C(3)-W-L-Q-W-N-C(3)-(L-Ala)-F-D-CONH2] (Ac-MSDCWLQWNCAFD-NH2; disulfide 4-10)
> 100 nM | CSCC[C@H](NC(C)=O)C(=O)N[C@@H](CO)C(=O)N[C@@H](CC(=O)O)C(=O)N[C@H]1CSSC[C@@H](C(=O)N2CCC[C@H]2C(=O)N[C@@H](C)C(=O)N[C@@H](CC(=O)O)C(N)=O)NC(=O)[C@H](CC(N)=O)NC(=O)[C@H](Cc2c[nH]c3ccccc23)NC(=O)[C@H](CCC(N)=O)NC(=O)[C@H](CC(C)C)NC(=O)[C@H](Cc2c[nH]c3ccccc23)NC1=O [compound 28, Ac-M-S-D-C(3)-W-L-Q-W-N-C(3)-P-(L-Ala)-D-CONH2] (Ac-MSDCWLQWNCPAD-NH2; disulfide 4-10)
> 100 nM | CSCC[C@H](NC(C)=O)C(=O)N[C@@H](CO)C(=O)N[C@@H](CC(=O)O)C(=O)N[C@H]1CSSC[C@@H](C(=O)N2CCC[C@H]2C(=O)N[C@@H](Cc2ccccc2)C(=O)N[C@@H](C)C(N)=O)NC(=O)[C@H](CC(N)=O)NC(=O)[C@H](Cc2c[nH]c3ccccc23)NC(=O)[C@H](CCC(N)=O)NC(=O)[C@H](CC(C)C)NC(=O)[C@H](Cc2c[nH]c3ccccc23)NC1=O [compound 29, Ac-M-S-D-C(3)-W-L-Q-W-N-C(3)-P-F-(L-Ala)-CONH2] (Ac-MSDCWLQWNCPFA-NH2; disulfide 4-10)
